# Laboratory results as given in patent EP0058009A1, “Novel benzanilide derivatives and pharmaceutical compositions containing them” (KYOWA HAKKO KOGYO CO., LTD., priority 1981, dated 1982).
# Legend:
# [1] = tested on: carrageenin-induced paw edema; test: Effect on carrageenin-induced paw edema (anti-inflammatory effect), method of Winter et al.; type: in vivo, Wistar strain male rats; settings: Rattus norvegicus, oral, 1 hour before 1% carrageenin, paw volume 3 hours after injection, Wistar male rats, read-out: Anti-inflammatory Effect Inhibition Rate (%)
# Experimental: (2) Effect on carrageenin-induced paw edema (Anti-inflammatory Effect)
# This test was conducted according to the method by Winter et al.[Winter C.A. et al.: Proc. Soc. Exptl.
# As the animals to be tested, groups of 5 - 10 Wistar strain male rats weighing 140 ± 10 g were used, and a 1% carrageenin solution was employed as the phlogistic agent. The compound to be tested was - orally administered to the animals, and an hour later, 0.1 ml of the phlogistic agent was injected subcutaneously to the right hind paw, to induce edema.
# The volume of the paw was measured before the injection of the phlogistic agent and 3 hours after the injection, and based on these volume measurements, the edema rate was calculated from the following equation: [formula]
# Vn: The volume before the phlogistic agent treatment.
# Vt: The volume after the phlogistic agent treatment.
# The effect was determined, compared with the control group, the group to which the compound to be tested was not administered and expressed in terms of the inhibition rate of edema. The inhibition rate was calculated from the following equation.
# Ec: The average edema rate of the control group.
# Et: The average edema rate of the group to which the compound to be tested was administered...
# dd strain male mice = test: Acute toxicity, oral administration, deaths counted over one week; type: in vivo; settings: Dose: 1500mg/kg, observed for a week
# acetic acid writhing = test: Analgesic effect, acetic acid writhing method (Koster et al.); type: in vivo, dd strain male mice; settings: Mus musculus, oral, 60 minutes before 0.7% acetic acid i.p., number of writhes, dd male mice, read-out: Analgesic Effect Inhibition Rate (%)
# Experimental: (3) Analgesic Effect (Acetic Acid Writhing Method) This was done according to the method by Koster, et al Federation Proc. 18, 412 (1959)]. The animals to be tested were groups of 10 dd strain male nice weighing 20 ± 1 g. The compound to be tested .was administered orally, and 60 minutes after the administration, 0.2 ml of a 0.7% acetic acid solution ,vas administered intraperitoneally. For a period of 10 minutes from […] minutes after the administration of said acetic acid solution, the number of writhes was measured and the average number was determined. The unhibition rate (%) was calculated from the following equation. [formula] Ec: The average number of writhes in the control group. Et: The average number of writhes in the group to which the compound to be tested was administered.
SMILES,inhibition in vivo at 100 mg/kg [1] [%],Acute Toxicity Nos. of Deaths/ Nos. of Tests (dd strain male mice),inhibition in vivo at 100 mg/kg (acetic acid writhing) [%]
"COc1ccc(C(=O)Nc2cccc(F)c2)cc1N [Compound 1, 3-Amino-3'-fluoro-4-methoxy-benzanilide]",64.3,0/6,41.9
"COc1ccc(C(=O)Nc2cccc(C(F)(F)F)c2)cc1N [Compound 2, 3-Amino-3'-trifluoro-methyl-4-benzanilide]",38.8,0/6,48.8
"COc1ccc(C(=O)Nc2cc(C(F)(F)F)cc(C(F)(F)F)c2)cc1N [Compound 3, 3-Amino-3',5'-ditrifluoro-methyl-4-methoxy-benzanilide]",16.9,0/6,24.6
"COc1ccc(C(=O)Nc2ccc(Cl)cc2C(F)(F)F)cc1N [Compound 4, 3-Amino-2'-trifluoro-methyl-4'-chloro-4-methoxy-benzanilide]",8.7,0/6,34.8
"COc1ccc(C(=O)Nc2cc(C(F)(F)F)ccc2Cl)cc1N [Compound 5, 3-Amino-2'-chloro-5'-tri-fluoromethyl-4-methoxy-benzanilide]",0,0/6,52.3
"COc1ccc(C(=O)Nc2ccccc2)cc1N [Compound 6, 3-Amino-4-methoxy-benzanilide]",55.9,0/5,43.4
"COc1ccc(C(=O)Nc2ccc(Cl)cc2Cl)cc1N [Compound 7, 3-Amino-2',4'-dichloro-4-methoxy-benzanilide]",5.5,0/6,40.2
"COc1ccc(C(=O)Nc2c(C)cccc2C)cc1N [Compound 8, 3-Amino-2',6'-dimethyl-4-methoxy-benzanilide]",19.5,0/6,45.7
"CC(C)Cc1ccc(C(C)C(=O)O)cc1 (stereo not drawn) [Ibuprofen, α-methyl-4-(2-methylpropyl) benzene acetic acid, reference compound]",68.4,2/5,16.3
"COc1cc(C)nc(-n2nc(C)cc2OC)n1 [Mepirizole, 4-methoxy-2-(5-methoxy-3-meLhylpyrazol-1-yl)-6-methylpyrimidine, reference compound]",29.2,2/2,44.6
